Results reported in patent US6706683B1, “Method for controlling the release of granules” (Asahi Kasei Pharma Corporation, priority 1998, dated 2004).

Legend:
[1] = tested on: neutrophils; test: Screening of samples in calgranulin-stimulated elastase secretion from permeabilized neutrophils (Example 3); type: cell-based, human; details: sample 30 μM; for Amount of secretion (%): elastase, control without sample = 100%, calcium chloride 1 μM plus calgranulin (type and concentration not given); for effect on elastase (granule) secretion from neutrophils, in words: calgranulin A activated system
[2] = tested on: human neutrophils; test: Lactoferrin secretion from permeabilized human neutrophils on addition of calgranulin and calcium chloride, ELISA (Example 2); type: cell-based; details: 3 μM calgranulin, 1 μM calcium chloride, digitonin-permeabilized neutrophils, 37° C. 5 minutes
Experimental: A neutrophil suspension was prepared from blood collected from human vein according to the method described in Biological Chemistry Experiment Lecture, second series, No. 8, Blood, Vol. 2, 679-685). The neutrophil suspension was adjusted to a concentration of 1×10^7 cells/ml using PB in a plastic test tube and incubated at 37° C. for 10 minutes. Digitonin (Sigma company) was added to the neutrophil suspension to a final concentration of 5 μg/ml and the mixture was incubated at 37° C. for 15 minutes.
The neutrophil suspension was centrifuged at 1200 rpm for 5 minutes. After supernatant was discarded, precipitated neutrophils were re-suspended in PB to prepare a permeabilized neutrophil suspension (cell concentration: 1×10^7 cells/ml). The permeabilized neutrophil suspension was added to a 96-well immunoplate, 200 μl per well, and incubated at 37° C. for 15 minutes. Next, an aqueous solution of calcium chloride (final concentration: 1 μM) and calgranulin A, calgranulin B, or a equimolar mixture of calgranulin A and calgranulin B (each to a final concentration of 0 μM, 0.3 μM, 1 μM, or 3 μM) were added, and the resulting mixtures were incubated at 37° C. for 5 minutes. The 96-well immunoplate was centrifuged at 1200 rpm for one minute at 4° C. ELISA-kit (OXIS Co.) was used for the determination of lactoferrin. […]

[3] = tested on: human neutrophils; test: Elastase secretion from permeabilized human neutrophils on addition of calgranulin and calcium chloride (Example 1); type: cell-based; details: 3 μM calgranulin, 1 μM calcium chloride, digitonin-permeabilized neutrophils, 37° C. 5 minutes
Experimental: A neutrophil suspension was prepared from blood collected from human vein according to the method described in Biological Chemistry Experiment Lecture, second series, No. 8, Blood, Vol. 2, 679-685). The neutrophil suspension was adjusted to a concentration of 1×10^7 cells/ml in a plastic test tube using a permeabilized buffer (PB) (30 mM HEPES, 100 mM KCl, 20 mM NaCl, 1 mM EGTA, pH 7.0) and incubated at 37° C. for 10 minutes. Digitonin (Sigma company) was added to the neutrophil suspension to a final concentration of 5-7.5 μg/ml and the mixture was incubated at, 37° C. for 15 minutes. The neutrophil suspension was centrifuged at 1200 rpm for 5 minutes. After discarding supernatant, precipitated neutrophils were re-suspended in PB to prepare a permeabilized neutrophil suspension (cell concentration: 1×10^7/ml).
The permeabilized neutrophil suspension was added to a 96-well immunoplate, 200 μl per well, and incubated for at 37° C. 15 minutes. […]
The 96-well immunoplate was centrifuged at 1200 rpm for one minute at 4° C. using a centrifugation container for immunoplates. […] Then, absorbance at 405 nm was measured using a microplate reader.

| Molecule | Amount of secretion (%) [1] [%] | effect on elastase (granule) secretion from neutrophils, in words [1] | amount of lactoferrin secretion, assuming secretion in the absence of calgranulin is 1 [2] | amount of elastase secretion, assuming secretion in the absence of calgranulin is 1 [3] |
| --- | --- | --- | --- | --- |
| COc1ccc(CN(CCCCCCCN2CCNCC2)c2ccc(OC)cc2)cc1.Cl.Cl.Cl [Compound 1, N-(4-methoxybenzyl)-N-(4-methoxyphenyl)-7-piperazinylheptyl amine trihydrochloride] | 61 | remarkably controlled granule secretion | – | – |
| COc1ccc(N(CCCCCCCN2CCNCC2)Cc2ccccc2)cc1.Cl.Cl.Cl [Compound 2, N-benzyl-N-(4-methoxyphenyl)-7-piperazinylheptylamine trihydrochloride] | 51 | remarkably controlled granule secretion | – | – |
| CCCCCCC(CC)=C(c1ccc(O)cc1)c1ccc(O)cc1 [Compound 3, 1,1-(di-4-hydroxyphenyl)-2-ethyl-1-octaene] | 151 | remarkably increased the amount of secretion | – | – |
| calgranulin A: calcium-binding protein with a molecular weight of about 8 kD; SEQ ID NOS 1 and 3 (protein, listed as Homo sapiens) MLTELEKALNSIIDVYHKYSLIKGNFHAVYRDDLKKLLETECPQYIRKKGADVWFKELDINTDGAVNFQEFLILVIKMGVAAHKKSHEESHKE | – | – | about six | about eight |
| calgranulin B: calcium-binding protein with a molecular weight of about 14 kD; SEQ ID NOS 2 and 4 (protein, listed as Homo sapiens) MTCKMSQLERNIETIINTFHQYSVKLGHPDTLNQGEFKELVRKDLQNFLKKENKNEKVIEHIMEDLDTNADKQLSFEEFIMLMARLTWASHEKMHEGDEGPGHHHKPGLGEGTP | – | – | about five | about seven |
